In US11453689B2, “3-pyrrolidine-indole derivatives as serotonergic psychedelic agents for the treatment of CNS disorders” (Mindset Pharma Inc., priority 2020, dated 2022):

Key:
[1] = Human liver microsomes stability with NADPH; settings: for Remaining Percentage (%) after 60 min, Human: human liver microsomes, with NADPH, 2 μM; for half-life at 2 μM / microsomal CLint at 2 μM: human, microsomes
Description: (§1) The objective of this study was to estimate in vitro metabolic stability of exemplary compounds in pooled human, male rat and male mouse liver microsomes. The concentrations of exemplary compounds in reaction systems were evaluated by LC-MS/MS for estimating the stability in pooled human, male rat and male mouse liver microsomes. The in vitro intrinsic clearances of test compounds were determined as well.
(§2) A master solution in the “Incubation Plate” containing phosphate buffer, ultra-pure H2O, MgCl2 solution and liver microsomes was made according to Table 3. The mixture was pre-warmed at 37° C. water bath for 5 minutes.
(§3) 40 μL of 10 mM NADPH solution was added to each well. The final concentration of NADPH was 1 mM. The negative control samples were prepared by replacing NADPH with 40 μL of ultra-pure H2O. Samples were prepared in duplicate. Negative controls were prepared in singlet.
(§4) The reaction was started with the addition of 4 μL of 200 μM exemplary test compounds or control compounds to each master solution to get the final concentration of 2 μM. This study was performed in duplicate.
(§5) Aliquots of 50 μL were taken from the reaction solution at 0, 15, 30, 45 and 60 minutes. The reaction solutions were stopped by the addition of 4 volumes of cold methanol with IS (100 nM alprazolam, 200 nM imipramine, 200 nM labetalol and 2 μM ketoprofen). Samples were centrifuged at 3,220 g for 40 minutes. Aliquot of 90 μL of the supernatant was mixed with 90 μL of ultra-pure H2O and then was used for LC-MS/MS analysis.
(§6) LC/MS analysis was performed for all samples from this study using a Shimadzu liquid chromatograph separation system equipped with degasser DGU-20A5R; solvent delivery unit LC-30AD; system controller SIL-30AC; column oven CTO-30A; CTC Analytics HTC PAL System. Mass spectrometric analysis was performed using an Triple Quad™ 5500 instrument.
(§7) All calculations were carried out using Microsoft Excel. Peak areas were determined from extracted ion chromatograms. The slope value, k, was determined by linear regression of the natural logarithm of the remaining percentage of the parent drug vs. incubation time curve.
(§8) Conversion of the in vitro t1/2 (min) into the in vitro intrinsic clearance (in vitro CLint, in μL/min/mg proteins) was done using the following equation (mean of duplicate determinations): […]

[2] = Mouse liver microsomes stability with NADPH; settings: for half-life at 2 μM / microsomal CLint at 2 μM: male, mouse, microsomes; for Remaining Percentage (%) after 60 min, Mouse: mouse liver microsomes, with NADPH, 2 μM
Description: as §1, §2, §3, §4, §5, §6, §7, §8

[3] = In vivo pharmacokinetics in male C57BL/6 mice (IV and PO); settings: mouse; for AUC(0-inf) / C0 / clearance / AUC(0-t) / half-life / MRT inf / Vd / Cmax / Tmax / bioavailability: male, C57BL/6, plasma; for AUC(0-t): read-out: AUC0-tlast; for half-life: read-out: Apparent t1/2 (converted); for MRT inf: read-out: MRT0-inf; for Vd: read-out: Vss; for bioavailability: read-out: F (bioavailability)
Description: Example 26: In Vivo Assessment of the Pharmacokinetics in Mice and Rats […]
Male C57BL/6 mice (25-30 g) from Charles River Labs were acclimatized for a minimum of 5 days prior to dosing. Body weights will be recorded on the day of dosing.
Animals dosed p.o. were deprived of food overnight and fed ˜2 h following dosing.
Formulations were administered intravenously (i.v.) via the tail vein or orally (p.o.) by gavage with disposable feeding needles.
Serial blood samples were collected via tail snip. Terminal blood samples will be collected under isoflurane anesthesia by cardiac puncture.
All blood samples were transferred into K2EDTA tubes on wet ice and centrifuged within 5 min (3200×g for 5 min at 4° C.) to obtain plasma. Plasma will be stored at −80° C. until analysis.
(§9) AB Sciex QTRAP 4000 or 6500 MS/MS system equipped with an LC system with a binary pump, a solvent degasser, a thermostatted column compartment and a multiplate autosampler. i. Analysis software: Phoenix® WinNonlin® 8.2 (Pharsight, Certara, Mountainview, Calif.) ii. Analysis methods: non-compartmental analysis, linear up/log down trapezoidal rule iii. PK parameters: C0, t1/2, AUC0-tlast. AUC0-∞, CL, Vss, MRT, tmax(po), Cmax(po), F, as appropriate • C0 concentration extrapolated to time zero following an i.v. dose • tmax time at which maximum concentration is observed • Cmax maximum observed concentration • Apparent t1/2 apparent terminal half-life • AUC0-tlast area under the concentration vs time curve from time 0 to the time of the last measurable concentration • AUC0-inf area under the concentration vs time curve from time 0 to infinity • CL systemic clearance • MRT0-inf mean residence time from time zero to infinity • Vss steady-state volume of distribution • F bioavailability=(Dose^iv*AUC^po)/(Dose^po*AUC^iv)*100

[4] = In vivo pharmacokinetics in male SD rats (IV and PO); settings: rat; for AUC(0-inf) / C0 / clearance / AUC(0-t) / half-life / MRT inf / Vd / Cmax / Tmax / bioavailability: male, SD, plasma; for AUC(0-t): read-out: AUC0-tlast; for half-life: read-out: Apparent t1/2 (converted); for MRT inf: read-out: MRT0-inf; for Vd: read-out: Vss; for bioavailability: read-out: F (bioavailability)
Description: as §9, with “Example 26: In Vivo Assessment of the Pharmacokinetics in Mice and Rats Formulations were administered intravenously (i.v.) via the tail vein” for “AB Sciex QTRAP 4000”, “orally (p.o.) by gavage” for “6500 MS/MS system equipped”, “disposable feeding needles.” for “an LC system with a binary pump, a solvent degasser, a thermostatted column compartment and a multiplate autosampler.”

For `[2H]C([2H])([2H])N1CCC[C@@H]1Cc1c[nH]c2cccc(O)c12` [Compound I-2, (R)-3-((1-(methyl-d3)pyrrolidin-2-yl)methyl)-1H-indol-4-ol], the “Remaining Percentage (%) after 60 min, Human” value [1] was 82.10%, the half-life at 2 μM [1] was 3.51 h and the microsomal CLint at 2 μM [1] was 6.57 µL/min/mg. For the same molecule, the half-life at 2 μM [2] was 1.43 h, the microsomal CLint at 2 μM [2] was 16.2 µL/min/mg and the “Remaining Percentage (%) after 60 min, Mouse” value [2] was 61.51%. The AUC(0-inf) ([3]; IV, 1 mg/kg) was 463 ± 423 ng·h/mL, the C0 ([3]; IV, 1 mg/kg) was 3590 ± 4100 ng/mL and the clearance ([3]; IV, 1 mg/kg) was 64.5 mL/min/kg. It also gave an AUC(0-t) ([3]; IV, 1 mg/kg) of 461 ± 421 ng·h/mL, a half-life ([3]; IV, 1 mg/kg) of 3.09 ± 2.79 h and an MRT inf ([3]; IV, 1 mg/kg) of 0.733 ± 0.194 h. The Vd ([3]; IV, 1 mg/kg) was 3.09 ± 3.22 L/kg, the AUC(0-inf) ([3]; IV, 5 mg/kg) was 1410 ± 862 ng·h/mL and the C0 ([3]; IV, 5 mg/kg) was 4780 ± 3570 ng/mL. For the same molecule, the clearance ([3]; IV, 5 mg/kg) was 72.8 mL/min/kg, the AUC(0-t) ([3]; IV, 5 mg/kg) was 1370 ± 869 ng·h/mL and the half-life ([3]; IV, 5 mg/kg) was 12.7 ± 4.24 h. The MRT inf ([3]; IV, 5 mg/kg) was 3.1 ± 1.43 h, the Vd ([3]; IV, 5 mg/kg) was 15.3 ± 10.5 L/kg and the AUC(0-inf) ([3]; PO, 10 mg/kg) was 314 ng·h/mL. It also gave a Cmax ([3]; PO, 10 mg/kg) of 117 ± 23.7 ng/mL, a Tmax ([3]; PO, 10 mg/kg) of 0.25 h and an AUC(0-t) ([3]; PO, 10 mg/kg) of 271 ± 30.9 ng·h/mL. For the same molecule, the half-life ([3]; PO, 10 mg/kg) was 9.31 h, the bioavailability ([3]; PO, 10 mg/kg) was 6.27 ± 0.906% and the MRT inf ([3]; PO, 10 mg/kg) was 7.88 h. For the same molecule, the AUC0-inf/Dose ([3]; IV, 1 mg/kg) was 463 ± 423 kg·ng·h/mL/mg, the AUC0-inf/Dose ([3]; IV, 5 mg/kg) was 282 ± 172 kg·ng·h/mL/mg and the AUC0-inf/Dose ([3]; PO, 10 mg/kg) was 31.4 (n = 2) h*kg*ng/mL/mg. The Cmax/Dose ([3]; PO, 10 mg/kg) was 11.7 ± 2.37 kg·ng/mL/mg, the AUC(0-inf) ([4]; IV, 0.3 mg/kg) was 28.7 ± 3.82 ng·h/mL and the C0 ([4]; IV, 0.3 mg/kg) was 77.4 ± 7.22 ng/mL. For the same molecule, the clearance ([4]; IV, 0.3 mg/kg) was 177 mL/min/kg, the AUC(0-t) ([4]; IV, 0.3 mg/kg) was 27.6 ± 3.27 ng·h/mL and the half-life ([4]; IV, 0.3 mg/kg) was 0.593 ± 0.262 h. It also gave an MRT inf ([4]; IV, 0.3 mg/kg) of 0.609 ± 0.0984 h, a Vd ([4]; IV, 0.3 mg/kg) of 6.45 ± 1.4 L/kg and an AUC(0-inf) ([4]; PO, 3 mg/kg) of 419 ± 56.1 ng·h/mL. It also gave a Cmax ([4]; PO, 3 mg/kg) of 201 ± 50.9 ng/mL, a Tmax ([4]; PO, 3 mg/kg) of 0.333 ± 0.144 h and an AUC(0-t) ([4]; PO, 3 mg/kg) of 409 ± 46.1 ng·h/mL. It also gave a half-life ([4]; PO, 3 mg/kg) of 2.69 ± 1.95 h, a bioavailability ([4]; PO, 3 mg/kg) of 146 ± 19.5% and an MRT inf ([4]; PO, 3 mg/kg) of 2.29 ± 0.567 h. It also gave an AUC0-inf/Dose ([4]; IV, 0.3 mg/kg) of 95.6 ± 12.7 kg·ng·h/mL/mg, an AUC0-inf/Dose ([4]; PO, 3 mg/kg) of 140 ± 18.7 kg·ng·h/mL/mg and a Cmax/Dose ([4]; PO, 3 mg/kg) of 66.9 ± 17.0 kg·ng/mL/mg.

For `[2H]C([2H])(c1c[nH]c2cccc(OC)c12)[C@H]1CCCN1C([2H])([2H])[2H]` [Compound I-39, (R)-4-methoxy-3-((1-(methyl-d3)pyrrolidin-2-yl)methyl-d2)-1H-indole], the “Remaining Percentage (%) after 60 min, Human” value [1] was 73.65%, the half-life at 2 μM [1] was 2.27 h and the microsomal CLint at 2 μM [1] was 10.2 µL/min/mg. The half-life at 2 μM [2] was 1.6 h, the microsomal CLint at 2 μM [2] was 14.4 µL/min/mg and the “Remaining Percentage (%) after 60 min, Mouse” value [2] was 64.91%. For the same molecule, the AUC(0-inf) ([3]; IV, 1 mg/kg) was 1960 ± 696 ng·h/mL, the C0 ([3]; IV, 1 mg/kg) was 1290 ± 782 ng/mL and the clearance ([3]; IV, 1 mg/kg) was 9.25 mL/min/kg. The AUC(0-t) ([3]; IV, 1 mg/kg) was 1960 ± 696 ng·h/mL, the half-life ([3]; IV, 1 mg/kg) was 2.51 ± 0.366 h and the MRT inf ([3]; IV, 1 mg/kg) was 2.78 ± 0.388 h. For the same molecule, the Vd ([3]; IV, 1 mg/kg) was 1.5 ± 0.397 L/kg, the AUC(0-inf) ([3]; PO, 10 mg/kg) was 214 ± 49.6 ng·h/mL and the Cmax ([3]; PO, 10 mg/kg) was 134 ± 14.7 ng/mL. It also gave a Tmax ([3]; PO, 10 mg/kg) of 0.5 h, an AUC(0-t) ([3]; PO, 10 mg/kg) of 210 ± 46.6 ng·h/mL and a half-life ([3]; PO, 10 mg/kg) of 3.91 ± 1.81 h. The bioavailability ([3]; PO, 10 mg/kg) was 1.09 ± 0.253%, the MRT inf ([3]; PO, 10 mg/kg) was 2.3 ± 0.259 h and the AUC0-inf/Dose ([3]; IV, 1 mg/kg) was 1960 ± 696 kg·ng·h/mL/mg. For the same molecule, the AUC0-inf/Dose ([3]; PO, 10 mg/kg) was 21.4 ± 4.96 kg·ng·h/mL/mg, the Cmax/Dose ([3]; PO, 10 mg/kg) was 13.4 ± 1.47 kg·ng/mL/mg and the AUC(0-inf) ([4]; IV, 0.3 mg/kg) was 26.5 ± 3.62 ng·h/mL. It also gave a C0 ([4]; IV, 0.3 mg/kg) of 50.8 ± 4.63 ng/mL, a clearance ([4]; IV, 0.3 mg/kg) of 192 mL/min/kg and an AUC(0-t) ([4]; IV, 0.3 mg/kg) of 25.9 ± 3.49 ng·h/mL. It also gave a half-life ([4]; IV, 0.3 mg/kg) of 0.766 ± 0.0369 h, an MRT inf ([4]; IV, 0.3 mg/kg) of 0.882 ± 0.0298 h and a Vd ([4]; IV, 0.3 mg/kg) of 10.1 ± 1.01 L/kg. The AUC(0-inf) ([4]; PO, 3 mg/kg) was 36.5 ng·h/mL, the Cmax ([4]; PO, 3 mg/kg) was 14.8 ± 3.61 ng/mL and the Tmax ([4]; PO, 3 mg/kg) was 3.33 ± 2.31 h. The AUC(0-t) ([4]; PO, 3 mg/kg) was 1.48 ng·h/mL, the half-life ([4]; PO, 3 mg/kg) was 1.48 ± 0.813 h and the bioavailability ([4]; PO, 3 mg/kg) was 19.6 ± 10.3%. The MRT inf ([4]; PO, 3 mg/kg) was 3.18 h, the AUC0-inf/Dose ([4]; IV, 0.3 mg/kg) was 88.3 ± 12.1 kg·ng·h/mL/mg and the AUC0-inf/Dose ([4]; PO, 3 mg/kg) was 17.3 ± 9.09 kg·ng·h/mL/mg. The Cmax/Dose ([4]; PO, 3 mg/kg) was 4.92 ± 1.20 kg·ng/mL/mg.
